Marks after values point to notes of the source that are not given here.
Test system: human normal keratinocytes (NHEKs)
Assay: ROS production after oxidative stress (DCFH-DA method)
Format: cell-based
Settings: 200 μM
Method: The anti-oxidant properties of Raphanus sativus L. root extract was evaluated using human normal keratinocytes (NHEKs) by quantification of Reactive Oxygen Species (ROS) production after oxidative stress exposure according to the dichlorodihydrofluorescein diacetate (DCFH-DA; “Dichloro-dihydro-fluorescein diacetate (DCFH-DA) assay: a quantitative method for oxidative stress assessment of nanoparticle-treated cells”. Aranda et al. Toxicol In Vitro. 2013, 27(2):954-63.) method. In contact with cells, DCFH-DA is cleaved inside the cell to DCFH which is able to interact with reactive oxygen species (ROS) during oxidative stress leading to fluorescence emission. Consequently, the fluorescence emitted is correlated to the antioxidant property of the tested compound. The cell culture was done on primary cells freshly isolated from biopsies. Normal Human Epidermal Keratinocytes (NHEKs) were seeded in a black plate with a glass bottom at 20′000 cells per well in 96-wells plates with a type I collagen pre-coating in quadruplicate. The cells were incubated for 24 hours in complete medium (Epilife medium supplemented with HKGS) at 37° C. with 5% CO2. […] Finally, the emitted fluorescence was measured in darkness by excitation wavelength at 488 nm and emission wavelength at 525 nm with microplate reader (TECAN). […]

## Oc1ccc(C=Cc2cc(O)cc(O)c2)cc1 [Resveratrol]
5 mM TBP, p < 0.001
  Comparison to oxidative stress, no active: −76%***
ROS, NHEKs, oxidative stress 5 mM TBP
  Mean relative to TBP condition: 24.0%

Reference: patent US20230085721A1, “PIGMENT COMPRISING RAPHANUS SATIVUS EXTRACT AND MONTMORILLONITE” (GIVAUDAN SA, priority 2020, published 2023)
